Assay results from ChEMBL document CHEMBL4334438, “Discovery of novel glycogen synthase kinase-3α inhibitors: Structure-based virtual screening, preliminary SAR and biological evaluation for treatment of acute myeloid leukemia” (Eur J Med Chem, 2019).

Legend:
GSK-3beta (H350L mutant) = GSK-3beta (H350L mutant) (Homo sapiens, UniProt P49841, H350L); assay: Inhibition of human GSK-3beta H350L mutant (2 to end residues) at 10 uM using phospho GS2 peptide as substrate after 40 mins by [gamma-33ATP] radiometric assay relative to control; conditions: human GSK-3beta H350L mutant enzyme (residues 2 to end), probe phospho GS2 peptide
[1] = system: Serine/threonine-protein kinase B-raf (Homo sapiens), P15056 [V600E]; assay: Inhibition of recombinant full length human B-Raf V599E mutant (416 to end residues) assessed as residual activity at 1 uM using myelin basic protein as substrate incubated for 40 mins in presence of [gamma-33ATP] by scintillation counting based radiometry assay relative to control
[2] = system: Mast/stem cell growth factor receptor Kit (Homo sapiens), P10721 [V654A]; assay: Inhibition of recombinant human C-Kit V654A mutant (544 to end residues) assessed as residual activity at 1 uM poly(Glu, Tyr) 4:1 as substrate incubated 40 mins in presence of [gamma-33ATP] by scintillation counting based radiometry assay relative to control
[3] = system: Epidermal growth factor receptor (Homo sapiens), P00533 [L858R]; assay: Inhibition of recombinant human EGFR L858R mutant (696 to end residues) assessed as residual activity at 1 uM using poly(Glu, Tyr) 4:1 as substrate at 40 mins in presence of [gamma-33ATP] by scintillation counting based radiometry assay relative to control
[4] = biological target: Inhibitor of nuclear factor kappa-B kinase subunit alpha (Homo sapiens) (UniProt O15111); assay: Inhibition of full length human IKKalpha assessed as residual activity at 1 uM using peptide as substrate after 40 mins by [gamma-33ATP] radiometric assay relative to control
[5] = biological target: Inhibitor of nuclear factor kappa-B kinase subunit beta (Homo sapiens) (UniProt O14920); assay: Inhibition of full length human IKKbeta assessed as residual activity at 1 uM using peptide as substrate after 40 mins by [gamma-33ATP] radiometric assay relative to control
[6] = biological target: Mitogen-activated protein kinase 10 (Homo sapiens) (UniProt P53779); assay: Inhibition of human JNK3 assessed as residual activity at 1 uM using peptide as substrate after 40 mins by [gamma-33ATP] radiometric assay relative to control
[7] = biological target: MAP/microtubule affinity-regulating kinase 3 (Homo sapiens) (UniProt P27448); assay: Inhibition of recombinant full length human MARK3 assessed as residual activity at 1 uM using KKKVSRSGLYRSP as substrate incubated for 40 mins in presence of [gamma-33ATP by scintillation counting based radiometry assay relative to control
[8] = system: Hepatocyte growth factor receptor (Homo sapiens), P08581 [Y1230H]; assay: Inhibition of recombinant human MET A1209G/V1290L/Y1248H mutant (974 to end residues) assessed as residual activity at 1 uM using KKKGQEEEYVFIE as substrate incubated for 40 mins in presence of [gamma-33ATP by scintillation counting based radiometry assay relative to control
[9] = biological target: Serine/threonine-protein kinase 4 (Homo sapiens) (UniProt Q13043); assay: Inhibition of recombinant full-length human MST1 assessed as residual activity at 1 uM using KKSRGDYMTMQIG as substrate measured after 40 mins in presence of [gamma33P]ATP by scintillation counting method relative to control
[10] = biological target: Platelet-derived growth factor receptor alpha (Homo sapiens) (UniProt P16234); assay: Inhibition of human PDGFRalpha (550 to end residues) assessed as residual activity at 1 uM poly(Glu, Tyr) 4:1 as substrate measured after 40 mins in presence of [gamma33P]ATP by scintillation counting method relative to control
[11] = system: Serine/threonine-protein kinase D1 (Homo sapiens), Q15139 [UNDEFINED MUTATION]; assay: Inhibition of recombinant full-length human PKCmu R135A mutant assessed as residual activity at 1 uM using KKLNRTLSVA as substrate incubated for 40 mins in presence of [gamma33P]ATP by scintillation counting based radiometry assay relative to control
[12] = biological target: T1, cGMP-dependent protein kinase 1 (Homo sapiens) (UniProt Q13976); assay: Inhibition of recombinant full-length human PKG1beta assessed as residual activity at 1 uM using RRRLSFAEPG as substrate measured after 40 mins in presence of [gamma33P]ATP by scintillation counting method relative to control
T1 sequence (whole entry): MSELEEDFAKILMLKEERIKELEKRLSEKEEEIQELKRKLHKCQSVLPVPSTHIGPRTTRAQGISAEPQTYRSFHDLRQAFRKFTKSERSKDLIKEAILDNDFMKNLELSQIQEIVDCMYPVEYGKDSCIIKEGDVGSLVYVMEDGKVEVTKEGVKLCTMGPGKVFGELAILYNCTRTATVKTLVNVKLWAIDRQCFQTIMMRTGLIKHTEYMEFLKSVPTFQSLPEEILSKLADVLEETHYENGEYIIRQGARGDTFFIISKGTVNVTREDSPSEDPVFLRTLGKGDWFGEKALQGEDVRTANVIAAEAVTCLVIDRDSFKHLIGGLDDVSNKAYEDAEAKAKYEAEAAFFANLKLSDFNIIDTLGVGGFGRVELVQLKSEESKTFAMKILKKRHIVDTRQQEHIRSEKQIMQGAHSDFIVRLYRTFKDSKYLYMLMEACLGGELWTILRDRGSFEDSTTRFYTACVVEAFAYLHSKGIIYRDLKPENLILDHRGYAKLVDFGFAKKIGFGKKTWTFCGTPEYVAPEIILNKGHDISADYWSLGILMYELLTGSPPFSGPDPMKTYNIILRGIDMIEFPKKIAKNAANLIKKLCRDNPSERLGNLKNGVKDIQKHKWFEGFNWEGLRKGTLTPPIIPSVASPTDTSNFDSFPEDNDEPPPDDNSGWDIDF

[13] = system: Serine/threonine-protein kinase Sgk2 (Homo sapiens), Q9HBY8 [S416D]; assay: Inhibition of recombinant human SGK2 S416D mutant (54 to end residues) assessed as residual activity at 1 uM using GRPRTSSFAEGKK as substrate measured after 40 mins in presence of [gamma33P]ATP by scintillation counting method relative to control
[14] = biological target: Serine/threonine-protein kinase 16 (Homo sapiens) (UniProt O75716); assay: Inhibition of human STK16 assessed as residual activity at 1 uM by radiometric method relative to control
[15] = biological target: Tribbles homolog 2 (Homo sapiens) (UniProt Q92519); assay: Inhibition of recombinant full-length human TRB2 at 1 uM assessed as residual activity at 1 uM using RRRFRPASPLRGPPK as substrate measured after 120 mins in presence of [gamma33P]ATP by scintillation counting method relative to control
[16] = biological target: Tyrosine-protein kinase TXK (Homo sapiens) (UniProt P42681); assay: Inhibition of human Txk (256 to end residues) assessed as residual activity at 1 uM using GEEPLYWSFPAKKK as substrate measured after 40 mins in presence of [gamma33P]ATP by scintillation counting method relative to control

Chain of Inhibitor of nuclear factor kappa-B kinase subunit beta (Homo sapiens) (O14920 whole entry): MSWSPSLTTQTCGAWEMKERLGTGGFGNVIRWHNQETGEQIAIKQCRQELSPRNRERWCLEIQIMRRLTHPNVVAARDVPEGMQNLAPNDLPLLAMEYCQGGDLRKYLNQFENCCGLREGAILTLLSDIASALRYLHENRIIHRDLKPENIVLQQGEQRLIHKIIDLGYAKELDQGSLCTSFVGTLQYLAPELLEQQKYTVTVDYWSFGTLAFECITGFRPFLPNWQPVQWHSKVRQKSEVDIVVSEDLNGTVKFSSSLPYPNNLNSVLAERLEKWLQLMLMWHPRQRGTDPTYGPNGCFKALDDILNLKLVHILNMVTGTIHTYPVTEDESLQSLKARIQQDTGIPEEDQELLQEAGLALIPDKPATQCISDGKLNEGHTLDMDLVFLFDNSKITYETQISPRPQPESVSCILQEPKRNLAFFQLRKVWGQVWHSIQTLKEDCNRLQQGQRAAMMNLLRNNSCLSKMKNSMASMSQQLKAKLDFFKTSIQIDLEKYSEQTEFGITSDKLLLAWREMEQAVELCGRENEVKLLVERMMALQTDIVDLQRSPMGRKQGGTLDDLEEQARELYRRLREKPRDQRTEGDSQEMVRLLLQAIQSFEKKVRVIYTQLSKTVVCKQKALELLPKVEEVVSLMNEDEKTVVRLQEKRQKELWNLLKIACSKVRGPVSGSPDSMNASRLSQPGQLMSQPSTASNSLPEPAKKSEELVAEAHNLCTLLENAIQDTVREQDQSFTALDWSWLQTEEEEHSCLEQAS
Chain of Serine/threonine-protein kinase 4 (Homo sapiens) (Q13043 whole entry): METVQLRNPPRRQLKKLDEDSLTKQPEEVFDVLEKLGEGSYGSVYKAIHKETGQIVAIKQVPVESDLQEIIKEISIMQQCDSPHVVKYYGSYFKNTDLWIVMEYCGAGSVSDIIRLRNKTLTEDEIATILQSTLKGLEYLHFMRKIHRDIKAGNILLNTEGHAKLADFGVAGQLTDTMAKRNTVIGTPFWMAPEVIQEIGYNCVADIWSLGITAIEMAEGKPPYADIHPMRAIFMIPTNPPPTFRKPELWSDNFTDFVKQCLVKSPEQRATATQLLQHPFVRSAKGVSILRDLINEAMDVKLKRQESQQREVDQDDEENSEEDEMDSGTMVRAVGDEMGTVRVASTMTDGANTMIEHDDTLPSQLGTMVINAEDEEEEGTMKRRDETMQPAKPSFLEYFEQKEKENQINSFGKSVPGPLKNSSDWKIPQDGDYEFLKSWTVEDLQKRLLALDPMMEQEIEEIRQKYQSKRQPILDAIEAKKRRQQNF
Chain of GSK-3beta (H350L mutant) (P49841 whole entry, looked up, stated change not applied, the tested form may be a part): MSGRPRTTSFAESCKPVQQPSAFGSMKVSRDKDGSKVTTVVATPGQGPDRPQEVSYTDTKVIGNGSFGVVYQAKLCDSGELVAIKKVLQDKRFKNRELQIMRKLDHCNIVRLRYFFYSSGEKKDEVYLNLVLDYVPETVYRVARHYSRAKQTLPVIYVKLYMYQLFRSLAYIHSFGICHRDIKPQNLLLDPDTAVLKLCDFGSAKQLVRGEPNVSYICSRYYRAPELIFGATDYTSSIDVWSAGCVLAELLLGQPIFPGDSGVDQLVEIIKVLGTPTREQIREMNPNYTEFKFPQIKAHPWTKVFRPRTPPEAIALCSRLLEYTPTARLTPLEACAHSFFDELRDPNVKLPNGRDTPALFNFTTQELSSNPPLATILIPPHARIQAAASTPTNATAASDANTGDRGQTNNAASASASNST
Chain of Serine/threonine-protein kinase 16 (Homo sapiens) (O75716 whole entry): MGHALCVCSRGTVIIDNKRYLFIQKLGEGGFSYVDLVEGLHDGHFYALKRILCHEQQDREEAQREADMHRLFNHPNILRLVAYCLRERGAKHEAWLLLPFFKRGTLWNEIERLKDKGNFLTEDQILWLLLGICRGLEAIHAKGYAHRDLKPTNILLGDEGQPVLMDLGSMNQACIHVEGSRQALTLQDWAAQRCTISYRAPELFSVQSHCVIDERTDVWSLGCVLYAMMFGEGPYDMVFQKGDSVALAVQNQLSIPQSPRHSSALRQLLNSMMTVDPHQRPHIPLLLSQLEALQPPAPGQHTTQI
Chain of Serine/threonine-protein kinase B-raf (Homo sapiens), P15056 [V600E] (P15056 whole entry V600E): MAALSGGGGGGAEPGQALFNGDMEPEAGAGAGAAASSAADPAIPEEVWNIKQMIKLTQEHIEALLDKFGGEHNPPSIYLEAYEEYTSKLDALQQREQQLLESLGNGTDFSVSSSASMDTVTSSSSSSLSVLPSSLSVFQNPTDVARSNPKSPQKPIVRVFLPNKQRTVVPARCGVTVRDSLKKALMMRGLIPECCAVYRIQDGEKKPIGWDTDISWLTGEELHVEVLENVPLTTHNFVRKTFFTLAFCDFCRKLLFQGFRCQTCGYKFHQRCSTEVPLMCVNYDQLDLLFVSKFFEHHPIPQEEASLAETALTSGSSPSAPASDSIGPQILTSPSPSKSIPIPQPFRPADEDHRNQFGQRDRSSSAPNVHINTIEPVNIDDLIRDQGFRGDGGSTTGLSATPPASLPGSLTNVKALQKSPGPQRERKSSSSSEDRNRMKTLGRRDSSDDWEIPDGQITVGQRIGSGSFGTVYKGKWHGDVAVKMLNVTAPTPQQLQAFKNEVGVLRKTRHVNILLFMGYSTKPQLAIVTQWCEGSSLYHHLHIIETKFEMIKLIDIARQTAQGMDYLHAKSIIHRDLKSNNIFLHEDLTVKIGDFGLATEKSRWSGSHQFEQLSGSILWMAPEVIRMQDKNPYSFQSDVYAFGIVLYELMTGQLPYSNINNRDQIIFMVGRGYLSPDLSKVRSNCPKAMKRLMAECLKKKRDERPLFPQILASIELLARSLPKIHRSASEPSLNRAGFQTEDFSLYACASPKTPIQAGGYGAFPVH
Chain of Serine/threonine-protein kinase Sgk2 (Homo sapiens), Q9HBY8 [S416D] (Q9HBY8 1-367 with tags or gaps S416D): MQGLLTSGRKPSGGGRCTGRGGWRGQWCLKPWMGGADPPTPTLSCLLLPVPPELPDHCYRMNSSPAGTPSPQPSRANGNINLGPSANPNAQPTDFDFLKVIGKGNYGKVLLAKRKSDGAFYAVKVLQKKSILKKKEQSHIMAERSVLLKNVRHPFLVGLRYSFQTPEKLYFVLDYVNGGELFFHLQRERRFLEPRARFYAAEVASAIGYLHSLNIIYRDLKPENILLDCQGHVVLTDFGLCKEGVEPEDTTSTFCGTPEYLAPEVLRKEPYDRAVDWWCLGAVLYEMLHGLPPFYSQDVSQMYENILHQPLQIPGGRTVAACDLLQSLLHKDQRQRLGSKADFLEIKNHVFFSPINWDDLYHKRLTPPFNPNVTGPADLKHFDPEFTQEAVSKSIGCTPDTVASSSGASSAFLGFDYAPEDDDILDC
Chain of Platelet-derived growth factor receptor alpha (Homo sapiens) (P16234 whole entry): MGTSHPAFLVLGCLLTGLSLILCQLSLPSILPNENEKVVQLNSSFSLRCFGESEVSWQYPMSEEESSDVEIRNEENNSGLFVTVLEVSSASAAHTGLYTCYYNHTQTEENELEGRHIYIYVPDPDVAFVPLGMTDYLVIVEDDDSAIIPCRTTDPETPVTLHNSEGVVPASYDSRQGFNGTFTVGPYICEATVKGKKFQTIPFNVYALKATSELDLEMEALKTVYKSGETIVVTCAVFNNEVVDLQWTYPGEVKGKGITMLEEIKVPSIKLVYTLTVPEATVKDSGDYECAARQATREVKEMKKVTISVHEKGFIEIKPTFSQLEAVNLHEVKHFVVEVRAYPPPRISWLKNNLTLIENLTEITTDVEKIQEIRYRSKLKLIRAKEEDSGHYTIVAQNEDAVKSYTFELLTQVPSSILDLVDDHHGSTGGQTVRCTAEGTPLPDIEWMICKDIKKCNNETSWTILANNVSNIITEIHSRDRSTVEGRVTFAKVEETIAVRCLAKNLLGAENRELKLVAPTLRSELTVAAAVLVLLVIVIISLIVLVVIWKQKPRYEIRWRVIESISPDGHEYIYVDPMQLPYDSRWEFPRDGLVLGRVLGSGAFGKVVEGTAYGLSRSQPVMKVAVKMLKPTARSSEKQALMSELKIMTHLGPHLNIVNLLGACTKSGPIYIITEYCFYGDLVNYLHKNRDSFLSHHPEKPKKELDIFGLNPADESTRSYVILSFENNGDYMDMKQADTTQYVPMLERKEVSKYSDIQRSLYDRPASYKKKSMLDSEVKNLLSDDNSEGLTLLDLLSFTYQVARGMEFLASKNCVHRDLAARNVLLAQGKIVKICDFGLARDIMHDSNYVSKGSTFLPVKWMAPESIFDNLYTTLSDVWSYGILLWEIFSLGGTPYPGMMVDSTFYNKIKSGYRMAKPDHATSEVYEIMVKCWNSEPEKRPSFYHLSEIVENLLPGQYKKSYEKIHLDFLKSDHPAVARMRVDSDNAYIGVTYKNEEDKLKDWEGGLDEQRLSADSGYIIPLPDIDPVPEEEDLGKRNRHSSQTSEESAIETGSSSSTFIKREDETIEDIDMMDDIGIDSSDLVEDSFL
Chain of Mitogen-activated protein kinase 10 (Homo sapiens) (P53779 whole entry): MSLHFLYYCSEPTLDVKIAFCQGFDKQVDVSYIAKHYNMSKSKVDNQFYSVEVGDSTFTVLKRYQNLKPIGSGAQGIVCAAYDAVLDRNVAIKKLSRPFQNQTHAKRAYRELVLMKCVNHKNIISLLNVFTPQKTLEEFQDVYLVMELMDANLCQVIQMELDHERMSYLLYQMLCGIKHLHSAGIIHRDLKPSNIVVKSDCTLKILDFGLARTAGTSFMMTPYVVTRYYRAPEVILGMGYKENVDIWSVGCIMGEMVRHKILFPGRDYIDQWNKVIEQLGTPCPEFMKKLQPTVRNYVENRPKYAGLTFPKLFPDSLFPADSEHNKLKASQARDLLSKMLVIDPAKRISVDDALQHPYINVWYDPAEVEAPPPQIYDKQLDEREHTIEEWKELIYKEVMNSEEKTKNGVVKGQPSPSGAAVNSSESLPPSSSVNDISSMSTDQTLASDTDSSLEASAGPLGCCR

SMILES | inhibition at 40 min, 10 µM (GSK-3beta (H350L mutant)) | Activity [1] | Activity [2] | Activity [3] | Activity [4] | Activity [5] | Activity [6] | Activity [7] | Activity [8] | Activity [9] | Activity [10] | Activity [11] | Activity [12] | Activity [13] | Activity [14] | Activity [15] | Activity [16]
C=CCOC(=O)c1cc(-c2ccc(/C=C3/NC(=S)NC3=O)o2)ccc1Cl | 92% | 87% | 95% | 106% | 104% | 129% | 100% | 99% | 116% | 103% | 92% | 99% | 100% | 108% | 90% | 49% | 104%
N=C1NC(=O)/C(=C\c2ccc(-c3cccc([N+](=O)[O-])c3)o2)S1 | 95% | 95% | 108% | 76% | 102% | 62% | 112% | 100% | 106% | 98% | 104% | 97% | 82% | 101% | 95% | 40% | 100%
